Literature values as cited in patent US20050009782A1, “Antiviral charged polymers that exhibit resistance to lysosomal degradation during kidney filtration and renal passage, compositions and methods of use thereof” (priority 2003, published 2005).

Tests used:
[1] = test system: HIV; conditions: for In vitro activity: listed virus = activity demonstrated; for inhibition of HIV replication: in vitro; for inhibition of HIV replication / inhibition of HIV in vitro: reported in literature
[2] = test system: HSV-1; conditions: listed virus = activity demonstrated
[3] = test system: HSV-2; conditions: listed virus = activity demonstrated
[4] = test system: HIV-1; conditions: listed virus = activity demonstrated
[5] = test system: RLV; conditions: listed virus = activity demonstrated
[6] = test system: CMV; conditions: for In vitro activity: listed virus = activity demonstrated; for inhibition of cytomegaloviruses in vitro: reported in literature
[7] = test system: measles; conditions: listed virus = activity demonstrated
[8] = test system: mumps; conditions: listed virus = activity demonstrated
[9] = test system: HSV; conditions: for inhibition of herpes simplex viruses in vitro: reported in literature; for In vitro activity: listed virus = activity demonstrated
[10] = test system: Chlamydia; conditions: listed organism = activity demonstrated
[11] = test system: paramyxoviruses; conditions: reported in literature
[12] = test system: influenza viruses
[13] = test system: semlikiviruses; conditions: reported in literature
[14] = test system: HIV
[15] = test system: HHV-7; conditions: listed virus = activity demonstrated
[16] = test system: ASFV
[17] = test system: Denge virus; conditions: listed virus = activity demonstrated
[18] = test system: MLV; conditions: listed virus = activity demonstrated

Polyinosinic-polycytidylic acid
In vitro activity [1]: HIV

iota-carrageenan
inhibition of HIV replication [1]: inhibit HIV replication

Xylomannan sulfate
In vitro activity [1]: HIV | In vitro activity [2]: HSV-1 | In vitro activity [3]: HSV-2

sulfated cyclodextrins
inhibition of HIV replication [1]: inhibit HIV replication

Glycyrrhizin sulfate
In vitro activity [1]: HIV

Sulfated xylogalactans
In vitro activity [4]: HIV-1

Lentinan sulfate
inhibition of HIV replication [1]: inhibit HIV replication | In vitro activity [1]: HIV

N-carboxymethylchitosan-N,O-sulfate
In vitro activity [1]: HIV | In vitro activity [5]: RLV

2-acetamido-2-deoxy-3-O-sulfo(14)-beta-D-glycopyranan
In vitro activity [1]: HIV

Sulfated octadecyl maltohexaoside
In vitro activity [1]: HIV

Sulfated octadecyl ribofurnans
In vitro activity [1]: HIV

Galactan sulfate
In vitro activity [1]: HIV | In vitro activity [2]: HSV-1

Calcium spirulan
In vitro activity [1]: HIV | In vitro activity [2]: HSV-1 | In vitro activity [6]: CMV | In vitro activity [7]: measles | In vitro activity [8]: mumps

O=S(=O)(O)OC1C(OS(=O)(=O)O)C(OS(=O)(=O)O)C(OS(=O)(=O)O)C(OS(=O)(=O)O)C1OS(=O)(=O)O (stereo not drawn) [Inositol hexasulfate]
In vitro activity [1]: HIV

Pentosan polysulfate
inhibition of HIV replication [1]: inhibit HIV replication | In vitro activity [1]: HIV | inhibition of HIV in vitro [1]: potent inhibitors | inhibition of cytomegaloviruses in vitro [6]: potent inhibitors | inhibition of herpes simplex viruses in vitro [9]: potent inhibitors | In vitro activity [10]: Chlamydia | inhibition of paramyxoviruses in vitro [11]: potent inhibitors | inhibition of influenza viruses in vitro [12]: potent inhibitors | inhibition of semlikiviruses in vitro [13]: potent inhibitors

Sulfated N-deacetylatedchitin
In vitro activity [9]: HSV

Achranthese bidentata polysaccharide sulfate
In vitro activity [2]: HSV-1

CCCCCCCCCCCCOS(=O)(=O)[O-].[Na+] [Sodium lauryl sulfate]
In vitro activity [1]: HIV | In vitro activity [9]: HSV

Curdlan sulfate
In vitro activity [1]: HIV | In vitro activity [6]: CMV

dextrin sulfate
inhibition of HIV replication [1]: inhibit HIV replication

Prunellin
In vitro activity [1]: HIV

N[C@H]1C(O)O[C@H](COS(=O)(=O)O)[C@@H](O)[C@@H]1O (stereo partly drawn) [Glucosamine-6-sulfate (monosaccharide), Glucosamine-6-sulfate]
In vitro activity [1]: HIV

(14)-2-deoxy-2-sulfamido-3-O-sulfo-(14)-beta-D-glycopyranan
In vitro activity [1]: HIV

Polyacetal polysulfate
In vitro activity [1]: HIV

kappa-carrageenan
inhibition of HIV replication [1]: inhibit HIV replication

Sulfoevernan
inhibition of HIV replication [1]: inhibit HIV replication | In vitro activity [1]: HIV

Chondroitin polysulfate
In vitro activity [1]: HIV

lambda-carrageenan
inhibition of HIV replication [1]: inhibit HIV replication

dextran sulfate
inhibition of HIV replication [1]: inhibit HIV replication | inhibition of HIV in vitro [1]: potent inhibitors | inhibition of cytomegaloviruses in vitro [6]: potent inhibitors | inhibition of herpes simplex viruses in vitro [9]: potent inhibitors | inhibition of paramyxoviruses in vitro [11]: potent inhibitors | inhibition of influenza viruses in vitro [12]: potent inhibitors | inhibition of semlikiviruses in vitro [13]: potent inhibitors | toxicity of continuous intravenous infusion (continuous infusion to maximally tolerated dose, subjects with symptomatic HIV infection, up to 14 days): toxic | toxicity in mammals and HIV patients (mammals and HIV patients): significant toxicity | activity against HIV in vivo ([14]; commercial dextran sulfate): poor activity | beneficial effect in vivo ([14]; continuous infusion, subjects with symptomatic HIV infection, up to 14 days): lack of any demonstration of beneficial effect in vivo

3′ sulfogalactosylceramide [Sulfatide (3′ sulfogalactosylceramide)]
In vitro activity [1]: HIV

Fucoidin
inhibition of HIV replication [1]: inhibit HIV replication | In vitro activity [1]: HIV | In vitro activity [10]: Chlamydia

Mannan sulfate
inhibition of HIV replication [1]: inhibit HIV replication | In vitro activity [1]: HIV

Rhamnan sulfate
In vitro activity [1]: HIV | In vitro activity [2]: HSV-1 | In vitro activity [6]: CMV

Ribofuranan sulfate
In vitro activity [1]: HIV

Carboxymethylchitin
In vitro activity [9]: HSV

Sulfate dodecyl laminarapentaoside
In vitro activity [1]: HIV

Heparin
inhibition of HIV replication [1]: inhibit HIV replication | In vitro activity [1]: HIV | inhibition of HIV in vitro [1]: potent inhibitors | inhibition of cytomegaloviruses in vitro [6]: potent inhibitors | inhibition of herpes simplex viruses in vitro [9]: potent inhibitors | In vitro activity [15]: HHV-7 | In vitro activity [16]: ASFV, Denge | In vitro activity [17]: ASFV, Denge | In vitro activity [18]: virus, MLV | inhibition of paramyxoviruses in vitro [11]: potent inhibitors | inhibition of influenza viruses in vitro [12]: potent inhibitors | inhibition of semlikiviruses in vitro [13]: potent inhibitors

B1: Cyanovirin-N (from cyanobacterium): Cyanovirin-N from cyanobacterium (protein, UniProt P81180 1-101, looked up)
Cyanovirin-N: LGKFSQTCYNSAIQGSVLTSTCERTNGGYNTSSIDLNSVIENVDGSLKWQPSNFIETCRNTQLAGSSELAAECKTRAQQFVSTKINLDDHIANIDGTLKYE
In vitro activity [1]: HIV
